In the NIST ThermoML archive (doi:10.1021/je4000372):
Numbers after ± are expanded uncertainties.

Key:
[1] = xn = mol fraction of the nth substance listed; conditions: 101 kPa, Liquid; for viscosity: Capillary tube (Ostwald / Ubbelohde) method; for mass density: Pycnometric method
[2] = 101 kPa, Liquid; for viscosity: Capillary tube (Ostwald / Ubbelohde) method; for mass density: Pycnometric method

| SMILES | viscosity ([2]; 293.15 K) [mPa·s] | mass density ([2]; 293.15 K) [kg/m3] | viscosity ([2]; 303.15 K) [mPa·s] | mass density ([2]; 303.15 K) [kg/m3] | viscosity ([2]; 313.15 K) [mPa·s] | mass density ([2]; 313.15 K) [kg/m3] | viscosity ([2]; 323.15 K) [mPa·s] | mass density ([2]; 323.15 K) [kg/m3] | viscosity ([2]; 333.15 K) [mPa·s] | mass density ([2]; 333.15 K) [kg/m3] | also measured |
| --- | --- | --- | --- | --- | --- | --- | --- | --- | --- | --- | --- |
| OCCNCCO [diethanolamine] + CCCCOCCOCCO |  |  |  |  |  |  |  |  |  |  | viscosity ([1]; 293.15 K, x2 = 0): 890.9 ± 49 mPa·s; mass density ([1]; 293.15 K, x2 = 0): 1096.1 ± 2.3 kg/m3; viscosity ([1]; 303.15 K, x2 = 0): 382.2 ± 18 mPa·s; mass density ([1]; 303.15 K, x2 = 0): 1089.8 ± 2.2 kg/m3; viscosity ([1]; 313.15 K, x2 = 0): 187.6 ± 7.4 mPa·s; mass density ([1]; 313.15 K, x2 = 0): 1083.7 ± 2.2 kg/m3; viscosity ([1]; 323.15 K, x2 = 0): 99.11 ± 3.4 mPa·s; mass density ([1]; 323.15 K, x2 = 0): 1077.4 ± 2.2 kg/m3; viscosity ([1]; 333.15 K, x2 = 0): 58.12 ± 1.9 mPa·s; mass density ([1]; 333.15 K, x2 = 0): 1070.7 ± 2.2 kg/m3 |
| CCCCOCCOCCO [3,6-dioxa-1-decanol] + OCCN(CCO)CCO |  |  |  |  |  |  |  |  |  |  | viscosity ([1]; 293.15 K, x1 = 1): 5.84 ± 0.18 mPa·s; mass density ([1]; 293.15 K, x1 = 1): 952.9 ± 2.1 kg/m3; viscosity ([1]; 303.15 K, x1 = 1): 4.23 ± 0.13 mPa·s; mass density ([1]; 303.15 K, x1 = 1): 943.5 ± 2 kg/m3; viscosity ([1]; 313.15 K, x1 = 1): 3.22 ± 0.1 mPa·s; mass density ([1]; 313.15 K, x1 = 1): 935.7 ± 2 kg/m3; viscosity ([1]; 323.15 K, x1 = 1): 2.51 ± 0.08 mPa·s; mass density ([1]; 323.15 K, x1 = 1): 926.6 ± 2 kg/m3; viscosity ([1]; 333.15 K, x1 = 1): 2 ± 0.06 mPa·s; mass density ([1]; 333.15 K, x1 = 1): 918.5 ± 2 kg/m3 |
| OCCN(CCO)CCO [triethanolamine] | 917.6 ± 51 | 1124.3 ± 2.3 | 404.7 ± 19 | 1118.5 ± 2.3 | 203.9 ± 8.2 | 1112.8 ± 2.3 | 108.3 ± 3.8 | 1107.1 ± 2.3 | 64.2 ± 2.2 | 1101.5 ± 2.3 |  |
| CCCCOCCOCCO [3,6-dioxa-1-decanol] | 5.84 ± 0.18 | 952.9 ± 2.1 | 4.23 ± 0.13 | 943.5 ± 2 | 3.22 ± 0.1 | 935.7 ± 2 | 2.51 ± 0.08 | 926.6 ± 2 | 2 ± 0.06 | 918.5 ± 2 |  |
| NCCO [2-aminoethan-1-ol] | 24.14 ± 0.76 | 1016.1 ± 2.1 | 14.88 ± 0.48 | 1008.4 ± 2.1 | 9.93 ± 0.32 | 1000.1 ± 2.1 | 6.89 ± 0.22 | 991.9 ± 2.1 | 4.97 ± 0.16 | 983.6 ± 2.1 |  |
| OCCNCCO [diethanolamine] | 890.9 ± 49 | 1096.1 ± 2.3 | 382.2 ± 18 | 1089.8 ± 2.2 | 187.6 ± 7.4 | 1083.7 ± 2.2 | 99.11 ± 3.4 | 1077.4 ± 2.2 | 58.12 ± 1.9 | 1070.7 ± 2.2 |  |
| NCCO [2-aminoethan-1-ol] + CCCCOCCOCCO |  |  |  |  |  |  |  |  |  |  | viscosity ([1]; 293.15 K, x2 = 0): 24.14 ± 0.76 mPa·s; mass density ([1]; 293.15 K, x2 = 0): 1016.1 ± 2.1 kg/m3; viscosity ([1]; 303.15 K, x2 = 0): 14.88 ± 0.48 mPa·s; mass density ([1]; 303.15 K, x2 = 0): 1008.4 ± 2.1 kg/m3; viscosity ([1]; 313.15 K, x2 = 0): 9.93 ± 0.32 mPa·s; mass density ([1]; 313.15 K, x2 = 0): 1000.1 ± 2.1 kg/m3; viscosity ([1]; 323.15 K, x2 = 0): 6.89 ± 0.22 mPa·s; mass density ([1]; 323.15 K, x2 = 0): 991.9 ± 2.1 kg/m3; viscosity ([1]; 333.15 K, x2 = 0): 4.97 ± 0.16 mPa·s; mass density ([1]; 333.15 K, x2 = 0): 983.6 ± 2.1 kg/m3 |
